Measurements from patent US12310975B2, “Modulators of BCL6 proteolysis and associated methods of use” (Arvinas Operations, Inc., priority 2019, dated 2025).

Experiments:
[1] = target: T1, BCL6 (Homo sapiens (Human), UniProt P41182); assay: Immunofluorescence high content imaging of BCL6 degradation in T47D cells; assay type: cell-based; details: for Dmax: T47D; for DC50: class symbols A-D, read-out: EC50 (nM)*
Outline: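 Read-out is BCL6 immunofluorescence quantified by high-content imaging (10×, 4 fields per well) of T47D breast cancer cells. Cells were exposed for 3 days to degrader in an 11-point, 3-fold serial dilution reaching a final top concentration of 0.1 or 1 μM.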

[2] = target: T1, BCL6; assay: BCL6 TR-FRET assay (BCL6-Avitag-Biotin / BCoR-Cy5 peptide); assay type: binding
Outline: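 TR-FRET displacement assay: biotinylated His-SUMO-BCL6-Avitag (2 nM) pre-incubated 30 min at room temperature with compound (12-point 3-fold titration), then BCoR-Cy5 peptide (100 nM) and Eu-streptavidin (2 nM) added. Buffer: 50 mM HEPES pH 7.5, 125 mM NaCl, 0.01% Triton X, glutathione or DTT, 0.03% BSA. Read after 2 h.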

[3] = class symbols A-D, read-out: IC50 (nM)***

SMILES	Dmax [1]	IC50 ([2]; read-out: IC50)	IC50 [1]	EC50 [2]	further results
CNC(=O)[C@@H](C)Oc1cc2cc(Nc3nc(N4CCC(CN5CCN(c6ccc7c(c6)C(=O)N([C@H]6CCC(=O)NC6=O)C7=O)CC5)CC4)ncc3Cl)ccc2n(C)c1=O [compound 210, (R)-2-((6-((5-chloro-2-(4-((4-(2-((S)-2,6-dioxopiperidin-3-yl)-1,3-dioxoisoindolin-5-yl)piperazin-1-yl)methyl)piperidin-1-yl)pyrimidin-4-yl)amino)-1-methyl-2-oxo-1,2-dihydroquinolin-3-yl)oxy)-N-methylpropanamide]	–	–	≥ 100 nM	10 to 50 nM	–
CNC(=O)COc1cc2cc(Nc3nc(N4CCC(O[C@H]5C[C@H](N6CCN(c7ccc8c(c7)C(=O)N(C7CCC(=O)NC7=O)C8=O)CC6)C5)CC4)ncc3Cl)ccc2n(C(C)C)c1=O (stereo partly drawn) [compound 531, 2-({6-[(5-chloro-2-{4-[(1r,3r)-3-{4-[2-(2,6-dioxopiperidin-3-yl)-1,3-dioxo-2,3-dihydro-1H-isoindol-5-yl]piperazin-1-yl}cyclobutoxy]piperidin-1-yl}pyrimidin-4-yl)amino]-2-oxo-1-(propan-2-yl)-1,2-dihydroquinolin-3-yl}oxy)-N-methylacetamide]	< 50%	< 10 nM	–	–	–
Cn1c(=O)ccc2cc(Nc3nc(N4CCC(CN5CCN(c6ccc7c(c6)C(=O)N(C6CCC(=O)NC6=O)C7=O)CC5)CC4)ncc3Cl)ccc21 (stereo not drawn) [compound 150, 5-(4-((1-(5-chloro-4-((1-methyl-2-oxo-1,2-dihydroquinolin-6-yl)amino)pyrimidin-2-yl)piperidin-4-yl)methyl)piperazin-1-yl)-2-(2,6-dioxopiperidin-3-yl)isoindoline-1,3-dione]	–	–	–	–	DC50 [1]: > 100 nM; IC50 [2, 3]: ≥ 100 nM
CNC(=O)COc1cc2cc(Nc3nc(N4CCCN(c5ccc6c(c5)C(=O)N(C5CCC(=O)NC5=O)C6=O)CC4)ncc3Cl)ccc2n(C)c1=O (stereo not drawn) [compound 208, 2-((6-((5-chloro-2-(4-(2-(2,6-dioxopiperidin-3-yl)-1,3-dioxoisoindolin-5-yl)-1,4-diazepan-1-yl)pyrimidin-4-yl)amino)-1-methyl-2-oxo-1,2-dihydroquinolin-3-yl)oxy)-N-methylacetamide]	50 to 70%	–	50 to 100 nM	50 to 100 nM	–
CNC(=O)CCc1cc2cc(Nc3nc(N4CCC(CN5CCN(c6ccc7c(c6)C(=O)N(C6CCC(=O)NC6=O)C7=O)CC5)CC4)ncc3Cl)ccc2n(C)c1=O (stereo not drawn) [compound 155, 3-(6-((5-chloro-2-(4-((4-(2-(2,6-dioxopiperidin-3-yl)-1,3-dioxoisoindolin-5-yl)piperazin-1-yl)methyl)piperidin-1-yl)pyrimidin-4-yl)amino)-1-methyl-2-oxo-1,2-dihydroquinolin-3-yl)-N-methylpropanamide]	–	–	–	–	DC50 [1]: > 100 nM; IC50 [2, 3]: ≥ 100 nM
CC(=O)COc1cc2cc(Nc3nc(N4CCC(CN(C)CC#Cc5ccc6c(c5)C(=O)N(C5CCC(=O)NC5=O)C6=O)CC4)ncc3Cl)ccc2n(C)c1=O (stereo not drawn) [compound 176, 5-(3-(((1-(5-chloro-4-((1-methyl-2-oxo-3-(2-oxopropoxy)-1,2-dihydroquinolin-6-yl)amino)pyrimidin-2-yl)piperidin-4-yl)methyl)(methyl)amino)prop-1-yn-1-yl)-2-(2,6-dioxopiperidin-3-yl)isoindoline-1,3-dione]	–	–	–	–	Dmax ([1]; maximum, class symbols A-C): < 50%; IC50 [2, 3]: ≥ 100 nM
CONC(=O)COc1cc2cc(Nc3nc(N4CCC(CN5CCN(c6ccc7c(c6)C(=O)N(C6CCC(=O)NC6=O)C7=O)CC5)CC4)ncc3Cl)ccc2n(C)c1=O (stereo not drawn) [compound 209, 2-((6-((5-chloro-2-(4-((4-(2-(2,6-dioxopiperidin-3-yl)-1,3-dioxoisoindolin-5-yl)piperazin-1-yl)methyl)piperidin-1-yl)pyrimidin-4-yl)amino)-1-methyl-2-oxo-1,2-dihydroquinolin-3-yl)oxy)-N-methoxyacetamide]	≥ 70%	–	10 to 50 nM	> 100 nM	–

Further lines, with some results ahead:

Dmax [1]	IC50 ([2]; read-out: IC50)	IC50 [1]	EC50 [2]	SMILES	further results
< 50%	10 to 50 nM	–	–	CNC(=O)COc1cc2cc(Nc3nc(N4CCC(O[C@@H]5C[C@@H](COc6ccc7c(c6)C(=O)N(C6CCC(=O)NC6=O)C7=O)N(C)C5)CC4)ncc3Cl)ccc2n(C(C)C)c1=O (stereo partly drawn) [compound 463, 2-[(6-{[5-chloro-2-(4-{[(3R,5S)-5-({[2-(2,6-dioxopiperidin-3-yl)-1,3-dioxo-2,3-dihydro-1H-isoindol-5-yl]oxy}methyl)-1-methylpyrrolidin-3-yl]oxy}piperidin-1-yl)pyrimidin-4-yl]amino}-2-oxo-1-(propan-2-yl)-1,2-dihydroquinolin-3-yl)oxy]-N-methylacetamide]	–
≥ 70%	< 10 nM	–	–	CNC(=O)COc1cc2cc(Nc3nc(N4CCC(CN5CC(N6CCN(c7cccc8c7C(=O)N(C7CCC(=O)NC7=O)C8=O)CC6)C5)CC4)ncc3Cl)ccc2n(C(C)C)c1=O (stereo not drawn) [compound 499, 2-({6-[(5-chloro-2-{4-[(3-{4-[2-(2,6-dioxopiperidin-3-yl)-1,3-dioxo-2,3-dihydro-1H-isoindol-4-yl]piperazin-1-yl}azetidin-1-yl)methyl]piperidin-1-yl}pyrimidin-4-yl)amino]-2-oxo-1-(propan-2-yl)-1,2-dihydroquinolin-3-yl}oxy)-N-methylacetamide]	–
50 to 70%	–	< 10 nM	> 100 nM	CNC(=O)COc1cc2cc(Nc3nc(N4CCN(C5CCN(c6cccc7c6C(=O)N(C6CCC(=O)NC6=O)C7=O)CC5)CC4)ncc3Cl)ccc2n(C)c1=O (stereo not drawn) [compound 220, 2-((6-((5-chloro-2-(4-(1-(2-(2,6-dioxopiperidin-3-yl)-1,3-dioxoisoindolin-4-yl)piperidin-4-yl)piperazin-1-yl)pyrimidin-4-yl)amino)-1-methyl-2-oxo-1,2-dihydroquinolin-3-yl)oxy)-N-methylacetamide]	–
≥ 70%	–	< 10 nM	10 to 50 nM	CNC(=O)COc1cc2cc(Nc3nc(N4CCN(C(C)(C)C5CCN(c6ccc7c(c6)CN(C6CCC(=O)NC6=O)C7=O)CC5)CC4)ncc3Cl)ccc2n(C)c1=O (stereo not drawn) [compound 270, 2-{[6-({5-chloro-2-[4-(2-{1-[2-(2,6-dioxopiperidin-3-yl)-1-oxo-2,3-dihydro-1H-isoindol-5-yl]piperidin-4-yl}propan-2-yl)piperazin-1-yl]pyrimidin-4-yl}amino)-1-methyl-2-oxo-1,2-dihydroquinolin-3-yl]oxy}-N-methylacetamide]	–
≥ 70%	10 to 50 nM	–	–	CNC(=O)COc1cc2cc(Nc3nc(N4CCC(N5CCC6(CCN(c7ccc8c(c7)C(=O)N(C7CCC(=O)NC7=O)C8=O)C6)CC5)CC4)ncc3Cl)ccc2n(C(C)C)c1=O (stereo not drawn) [compound 515, 2-[(6-{[5-chloro-2-(4-{2-[2-(2,6-dioxopiperidin-3-yl)-1,3-dioxo-2,3-dihydro-1H-isoindol-5-yl]-2,8-diazaspiro[4.5]decan-8-yl}piperidin-1-yl)pyrimidin-4-yl]amino}-2-oxo-1-(propan-2-yl)-1,2-dihydroquinolin-3-yl)oxy]-N-methylacetamide]	–
50 to 70%	50 to 100 nM	–	–	Cn1c(=O)n(CCC(C)(C)O)c2cc(Nc3nc(N4CCN(CC5CCN(c6cccc7c6C(=O)N(C6CCC(=O)NC6=O)C7=O)CC5)CC4)ncc3Cl)ccc21 (stereo not drawn) [compound 505, 4-(4-{[4-(5-chloro-4-{[3-(3-hydroxy-3-methylbutyl)-1-methyl-2-oxo-2,3-dihydro-1H-1,3-benzodiazol-5-yl]amino}pyrimidin-2-yl)piperazin-1-yl]methyl}piperidin-1-yl)-2-(2,6-dioxopiperidin-3-yl)-2,3-dihydro-1H-isoindole-1,3-dione]	–
≥ 70%	≥ 100 nM	–	–	CNC(=O)COc1cc2cc(Nc3nc(N4CCC(CN5CCC(c6cc(OC)cc(C(=O)NC7CCC(=O)NC7=O)c6F)CC5)CC4)ncc3Cl)ccc2n(C(C)C)c1=O (stereo not drawn) [compound 462, 3-[1-({1-[5-chloro-4-({3-[(methylcarbamoyl)methoxy]-2-oxo-1-(propan-2-yl)-1,2-dihydroquinolin-6-yl}amino)pyrimidin-2-yl]piperidin-4-yl}methyl)piperidin-4-yl]-N-(2,6-dioxopiperidin-3-yl)-2-fluoro-5-methoxybenzamide]	–
50 to 70%	–	10 to 50 nM	< 10 nM	CNC(=O)COc1cc2cc(Nc3nc(N4CCOC(CN5CCN(c6ccc7c(c6)C(=O)N(C6CCC(=O)NC6=O)C7=O)CC5)C4)ncc3Cl)ccc2n(C)c1=O (stereo not drawn) [compound 272, 2-{[6-({5-chloro-2-[2-({4-[2-(2,6-dioxopiperidin-3-yl)-1,3-dioxo-2,3-dihydro-1H-isoindol-5-yl]piperazin-1-yl}methyl)morpholin-4-yl]pyrimidin-4-yl}amino)-1-methyl-2-oxo-1,2-dihydroquinolin-3-yl]oxy}-N-methylacetamide]	–
50 to 70%	< 10 nM	–	–	CNC(=O)COc1cc2cc(Nc3nc(N4CCC5(CC4)CC(CN4CCN(c6cccc7c6C(=O)N(C6CCC(=O)NC6=O)C7=O)CC4)C5)ncc3Cl)ccc2n(C(C)C)c1=O (stereo not drawn) [compound 484, 2-{[6-({5-chloro-2-[2-({4-[2-(2,6-dioxopiperidin-3-yl)-1,3-dioxo-2,3-dihydro-1H-isoindol-4-yl]piperazin-1-yl}methyl)-7-azaspiro[3.5]nonan-7-yl]pyrimidin-4-yl}amino)-2-oxo-1-(propan-2-yl)-1,2-dihydroquinolin-3-yl]oxy}-N-methylacetamide]	–
–	–	≥ 100 nM	> 100 nM	Cn1c(=O)c(-c2cnoc2)cc2cc(Nc3nc(N4CCC(CN5CCN(c6ccc7c(c6)C(=O)N(C6CCC(=O)NC6=O)C7=O)CC5)CC4)ncc3Cl)ccc21 (stereo not drawn) [compound 235, 5-(4-((1-(5-chloro-4-((3-(isoxazol-4-yl)-1-methyl-2-oxo-1,2-dihydroquinolin-6-yl)amino)pyrimidin-2-yl)piperidin-4-yl)methyl)piperazin-1-yl)-2-(2,6-dioxopiperidin-3-yl)isoindoline-1,3-dione]	–
